Test results: DBAASP
Converted amounts (≈) assume the structure as drawn. “And” between values parts separate entries of the source, which are not always exact repeats. Equal entries are not always repeated.

Columns and labels:
Experiment in all cases: ≥ marks a high value that may be exact or a test limit, other limits are often not marked, values filed in µg/mL are converted to µM
[1] = tested on: Acinetobacter calcoaceticus
[2] = tested on: Escherichia coli ATCC 25922
[3] = tested on: Staphylococcus aureus ATCC 2592
[4] = tested on: Candida albicans ATCC 2002
Pseudomonas aeruginosa = tested on: Pseudomonas aeruginosa
Shigella dysenteriae = tested on: Shigella dysenteriae
[5] = tested on: Escherichia coli DH5alpha
[6] = tested on: Escherichia coli ATCC 10536
[7] = tested on: Staphylococcus aureus ATCC 9144
[8] = tested on: Bacillus subtilis ATCC 6633
[9] = tested on: Staphylococcus aureus IFO 12732
[10] = tested on: Escherichia coli IFO 12734
[11] = tested on: Bacillus subtilis IFO 3513
[12] = tested on: Staphylococcus aureus ATCC BAA-1556
[13] = tested on: Candida albicans ATCC 10231
[14] = tested on: Enterococcus faecalis ATCC 29212
[15] = tested on: Pseudomonas aeruginosa ATCC 15422
[16] = tested on: Staphylococcus epidermidis KCTC 1917
[17] = tested on: Staphylococcus aureus USA 300
[18] = tested on: Pseudomonas aeruginosa ATCC 9027
[19] = tested on: Staphylococcus aureus USA 100
[20] = tested on: Candida albicans ATCC 90028
Escherichia coli = tested on: Escherichia coli
[21] = tested on: Pseudomonas aeruginosa ATCC 27853
[22] = tested on: Klebsiella pneumoniae ATCC 13883
[23] = tested on: Salmonella enterica subsp. enterica serovar Typhimurium ATCC 14028
[24] = tested on: Staphylococcus aureus ATCC 25923
Bacillus subtilis = tested on: Bacillus subtilis
[25] = tested on: Streptococcus pyogenes ATCC 19615

`CC[C@H](C)[C@H](NC(=O)[C@@H]1CCCN1C(=O)[C@H](Cc1ccccc1)NC(=O)[C@@H](N)Cc1ccccc1)C(=O)N[C@H](C(=O)NCC(=O)N[C@@H](CCCCN)C(=O)N[C@@H](CC(C)C)C(=O)N[C@@H](CC(C)C)C(=O)N[C@@H](CO)C(N)=O)C(C)C` [FFPIVGKLLS] was tested, and the MIC [1] was at least 66.9 µM, the MIC [2] was 26.8 µM (≈ 30 µg/mL) and the MIC [3] was 13.4 µM (≈ 15 µg/mL). For the same compound, the MIC [4] was 13.4 µM (≈ 15 µg/mL), the MIC (Pseudomonas aeruginosa) was 22.3 µM (≈ 25 µg/mL) and the MIC (Shigella dysenteriae) was at least 53.6 µM.
With `CC[C@H](C)[C@H](NC(=O)[C@H](CCCN=C(N)N)NC(=O)[C@@H](NC(=O)[C@@H](NC(=O)[C@@H]1CCCN1C(=O)[C@@H](NC(=O)[C@@H](NC(=O)[C@H](C)NC(=O)[C@@H]1CCCN1C(=O)CNC(=O)[C@H](Cc1ccc(O)cc1)NC(=O)[C@H](CCCCN)NC(=O)[C@H](CCCCN)NC(=O)[C@H](Cc1c[nH]c2ccccc12)NC(=O)[C@H](C)NC(=O)[C@H](CCCN=C(N)N)NC(=O)[C@H](CC(C)C)NC(=O)[C@H](C)NC(=O)[C@H](CCCCN)NC(=O)[C@H](CCCN=C(N)N)NC(=O)CNC(=O)[C@H](CC(C)C)NC(=O)[C@H](CO)NC(=O)[C@H](CCCN=C(N)N)NC(=O)[C@H](C)NC(=O)CNC(=O)CN)[C@@H](C)CC)C(C)C)[C@@H](C)CC)[C@@H](C)CC)C(N)=O` [GGARSLGRKALRAWKKYGPAIVPIIRI] the MIC [5] was 2.6 µM (≈ 7.66 µg/mL), the MIC [6] was 2.6 µM (≈ 7.66 µg/mL) and the MIC [7] was 3.9 µM (≈ 11.5 µg/mL). For the same compound, the MIC [8] was 1.7 µM (≈ 5.01 µg/mL).
For `CC[C@H](C)[C@H](NC(=O)[C@H](CCCN=C(N)N)NC(=O)[C@@H](NC(=O)[C@@H](NC(=O)[C@@H]1CCCN1C(=O)[C@@H](NC(=O)[C@@H](NC(=O)[C@@H](NC(=O)[C@@H]1CCCN1C(=O)CNC(=O)[C@H](Cc1ccc(O)cc1)NC(=O)[C@H](CCCCN)NC(=O)[C@H](CCCCN)NC(=O)[C@H](Cc1c[nH]c2ccccc12)NC(=O)[C@H](C)NC(=O)[C@H](CCCN=C(N)N)NC(=O)[C@H](CC(C)C)NC(=O)[C@H](C)NC(=O)[C@H](CCCCN)NC(=O)[C@H](CCCN=C(N)N)NC(=O)CNC(=O)[C@H](CC(C)C)NC(=O)[C@H](CO)NC(=O)[C@H](CCCN=C(N)N)NC(=O)[C@H](C)NC(=O)CNC(=O)CN)[C@@H](C)CC)[C@@H](C)CC)C(C)C)[C@@H](C)CC)[C@@H](C)CC)C(N)=O` [GGARSLGRKALRAWKKYGPIIVPIIRI], the MIC [5] was 2.7 µM (≈ 8.07 µg/mL), the MIC [6] was 2.5 µM (≈ 7.47 µg/mL) and the MIC [7] was 3.8 µM (≈ 11.4 µg/mL). For the same compound, the MIC [8] was 1.5 µM (≈ 4.48 µg/mL).
Compound `CC[C@H](C)[C@H](N)C(=O)N[C@@H](CC(C)C)C(=O)N1CCC[C@H]1C(=O)N[C@@H](CC(C)C)C(=O)N[C@@H](CCCCN)C(=O)N[C@@H](CC(C)C)C(=O)N1CCC[C@H]1C(=O)N[C@@H](Cc1c[nH]c2ccccc12)C(=O)N[C@@H](Cc1c[nH]c2ccccc12)C(=O)N1CCC[C@H]1C(=O)N[C@@H](Cc1c[nH]c2ccccc12)C(=O)N[C@@H](CCCN=C(N)N)C(=O)N[C@@H](CCCN=C(N)N)C(N)=O` [ILPLKLPWWPWRR] has an MIC [9] of 1.78 µM (≈ 3.13 µg/mL), an MIC [10] of 28.4 µM (≈ 50 µg/mL) and an MIC [11] of 1.78 µM (≈ 3.13 µg/mL).
With `CC[C@H](C)[C@H](N)C(=O)N[C@@H](CC(C)C)C(=O)N1CCC[C@H]1C(=O)N[C@@H](Cc1c[nH]c2ccccc12)C(=O)N[C@@H](CCCCN)C(=O)N[C@@H](Cc1c[nH]c2ccccc12)C(=O)N1CCC[C@H]1C(=O)N[C@@H](Cc1c[nH]c2ccccc12)C(=O)N[C@@H](CC(C)C)C(=O)N1CCC[C@H]1C(=O)N[C@@H](Cc1c[nH]c2ccccc12)C(=O)N[C@@H](CCCCN)C(=O)N[C@@H](CCCCN)C(N)=O` [ILPWKWPWLPWKK] the MIC [9] was 1.76 µM (≈ 3.13 µg/mL), the MIC [10] was 28.1 µM (≈ 50 µg/mL) and the MIC [11] was 1.76 µM (≈ 3.13 µg/mL).
`CC[C@H](C)[C@H](N)C(=O)N[C@@H](CC(C)C)C(=O)N1CCC[C@H]1C(=O)N[C@@H](Cc1c[nH]c2ccccc12)C(=O)N[C@@H](CCCCN)C(=O)N[C@@H](Cc1c[nH]c2ccccc12)C(=O)N1CCC[C@H]1C(=O)N[C@@H](Cc1ccc(O)cc1)C(=O)N[C@@H](CC(C)C)C(=O)N1CCC[C@H]1C(=O)N[C@@H](Cc1c[nH]c2ccccc12)C(=O)N[C@@H](CCCN=C(N)N)C(=O)N[C@@H](CCCN=C(N)N)C(N)=O` [ILPWKWPYLPWRR] gave an MIC [9] of 3.45 µM (≈ 6.25 µg/mL), an MIC [10] of 13.8 µM (≈ 25 µg/mL) and an MIC [11] of 1.73 µM (≈ 3.13 µg/mL).
With `CC(C)C[C@H](NC(=O)[C@H](CC(C)C)NC(=O)[C@H](CCCCN)NC(=O)[C@@H](N)CCCCN)C(=O)N[C@@H](CCCCN)C(=O)N[C@@H](Cc1c[nH]c2ccccc12)C(N)=O` [KKLLKW] the MIC [12] was at least 100 µM.
For `CC(C)C[C@H](NC(=O)CNC(=O)[C@H](Cc1ccc(O)cc1)NC(=O)[C@H](Cc1cnc[nH]1)NC(=O)[C@@H]1CCCN1C(=O)[C@H](CC(C)C)NC(=O)[C@H](CCC(=O)O)NC(=O)[C@H](Cc1ccccc1)NC(=O)[C@H](Cc1cnc[nH]1)NC(=O)[C@H](CO)NC(=O)[C@@H](N)CCCCN)C(=O)O` [KSHFELPHYGL], the MIC [2] was over 500 µM, the MIC [13] was over 500 µM and the MIC [14] was 468 µM and 458 µM and 442 µM. It also gave an MIC [15] of at least 500 µM and an MIC [16] of at least 315 µM.
Compound `NCCCC[C@H](N)C(=O)N[C@@H](Cc1c[nH]c2ccccc12)C(=O)N[C@@H](CCCN=C(N)N)C(=O)N[C@@H](CCCN=C(N)N)C(=O)N[C@@H](Cc1c[nH]c2ccccc12)C(N)=O` [KWRRW] has an MIC [12] of at least 100 µM.
`CC(C)C[C@H](NC(=O)[C@H](CC(C)C)NC(=O)[C@H](CCCCN)NC(=O)[C@H](CC(C)C)NC(=O)[C@H](CC(C)C)NC(=O)[C@H](Cc1c[nH]c2ccccc12)NC(=O)[C@H](CCCCN)NC(=O)[C@H](CC(C)C)NC(=O)[C@@H](N)CC(C)C)C(N)=O` [LLKWLLKLL] showed an MIC [12] of 3.13 µM (≈ 3.56 µg/mL).
For `CC(C)C[C@H](NC(=O)[C@H](CC(C)C)NC(=O)[C@H](CCCCN)NC(=O)[C@H](CC(C)C)NC(=O)[C@H](CC(C)C)NC(=O)[C@H](CCCCN)NC(=O)[C@H](CC(C)C)NC(=O)[C@H](CC(C)C)NC(=O)[C@@H](N)CC(C)C)C(N)=O` [LLLKLLKLL], the MIC [12] was 3.13 µM (≈ 3.34 µg/mL).
`CSCC[C@H](NC(=O)[C@H](Cc1cnc[nH]1)NC(=O)[C@H](CCCCN)NC(=O)[C@H](CC(C)C)NC(=O)[C@H](CCCCN)NC(=O)[C@@H](N)CCCN=C(N)N)C(=O)N[C@@H](CCCN=C(N)N)C(=O)N[C@@H](Cc1ccccc1)C(=O)O` [RKLKHMRF] showed an MIC [17] of at least 100 µM, an MIC [18] of over 100 µM and an MIC [19] of at least 100 µM. The MIC [20] was at least 100 µM.
In the case of `CC(C)C[C@H](NC(=O)[C@H](CO)NC(=O)[C@H](CCCN=C(N)N)NC(=O)[C@H](CCCCN)NC(=O)[C@@H](NC(=O)[C@@H](NC(=O)CNC(=O)[C@H](CCCN=C(N)N)NC(=O)[C@H](Cc1cnc[nH]1)NC(=O)[C@H](Cc1c[nH]c2ccccc12)NC(=O)[C@H](Cc1ccccc1)NC(=O)[C@H](Cc1cnc[nH]1)NC(=O)[C@H](Cc1ccc(O)cc1)NC(=O)[C@@H](N)Cc1ccc(O)cc1)C(C)C)[C@@H](C)O)C(=O)O` [YYHFWHRGVTKRSL], the MIC (Escherichia coli) is reported as 30 µM (≈ 55.5 µg/mL), the MIC [14] is reported as 70 µM (≈ 130 µg/mL) and the MIC [21] is reported as 60 µM (≈ 111 µg/mL). The MIC [22] was at least 70 µM, the MIC [23] was 80 µM (≈ 148 µg/mL) and the MIC [24] was 80 µM (≈ 148 µg/mL). The MIC (Bacillus subtilis) was at least 60 µM and the MIC [25] was at least 100 µM.
